Assays:
[1] = tested on: reversed passive Arthus reaction; assay: Reversed passive Arthus reaction (RPAR) inhibition, leakage area of Evans Blue; format: in vivo, rats; conditions: for RPAR inhibitory action: oral administration
Procedure: Activity of RPAR inhibition of the compounds of the present invention was measured in the following manner. Anti-BSA serum was obtained from rabbits that were previously administered bovine serum albumin ("BSA"). The anti-BSA serum was applied to four parts of the skin of the abdomens of rats previously treated with BSA and Evans Blue. The anti-BSA serum and the BSA and Evans Blue were administered to the rats subcutaneously. […] The local inflammation was determined by examining each of the four inflamed parts and measuring for each part the area from which there was leakage of Evans Blue. The data from the test animals were compared to the control animals, and a reduction in the leakage area of 20% or more was defined as a positive effect. The RPAR inhibition activity is reported as the number of positive effects per animal, divided by 4. Thus, two positive effects would be an RPAR of 2/4.

[2] = tested on: carrageenin edema; assay: carrageenin edema inhibiting activity; format: in vivo; conditions: intraperitoneal injection, 50 mg/kg
Excerpt: The RPAR inhibition activity of the compounds (I) of the present invention is not related to its anti-inflammatory activity.

[3] = Table I, 200 mg/kg body weight orally, number of positive effects (leakage area reduced 20% or more) out of 4 parts
[4] = Table 2, 500 mg/kg p.o., number of positive effects out of 4 parts
[5] = Table 2, 200 mg/kg p.o., number of positive effects out of 4 parts

## O=C(Nc1nc(-c2cc(Cl)ccc2Cl)nc(N2CCOCC2)n1)c1cccnc1 [Compound 9]
[1]
  RPAR inhibition activity (in words): strongly inhibits RPAR
[1]; [3]
  RPAR Inhibition: 4/4
[2]
  carrageenin edema inhibiting activity: 21%

## COc1ccc2c(c1)c(CC(=O)O)c(C)n2C(=O)c1ccc(Cl)cc1 [indomethacin]
[1]; 10 mg/kg
  RPAR inhibitory action: no RPAR inhibitory action

## Nc1nc(N)nc(-c2cc(Cl)ccc2Cl)n1 [Compound 11]
[1]
  RPAR inhibition activity (in words): do not exhibit RPAR inhibition activity at all
[1]; [4]
  RPAR Inhibition: 0/4

## CCN(CC)c1nc(NC(=O)c2cccnc2)nc(-c2ccc(Cl)c(Cl)c2)n1 [Compound 7]
[1]; [3]
  RPAR Inhibition: 3/4

## CN(C)c1nc(NC(=O)c2cccnc2)nc(-c2ccc(F)cc2)n1 [Compound 10]
[1]; [3]
  RPAR Inhibition: 3/4

## O=C(Nc1nc(-c2ccc(Cl)cc2)nc(N2CCCC2)n1)c1cccnc1 [Compound 1]
[1]; [3]
  RPAR Inhibition: 2/4

## CCCCC1C(=O)N(c2ccccc2)N(c2ccccc2)C1=O [phenylbutazone]
[1]; 100 mg/kg
  RPAR inhibitory action: no RPAR inhibitory action

## CCCCNc1nc(NC(=O)c2cccnc2)nc(-c2ccc(Cl)c(Cl)c2)n1 [Compound 6]
[1]; [3]
  RPAR Inhibition: 2/4

## Nc1nc(NC(=O)c2cccnc2)nc(-c2ccccc2)n1 [Compound 13]
[1]
  RPAR inhibition activity (in words): little or no RPAR inhibition activity
[1]; [5]
  RPAR Inhibition: 0/4
[1]; [4]
  RPAR Inhibition: 2/4

## CC(=O)Oc1ccccc1C(=O)O [aspirin]
[1]; 200 mg/kg
  RPAR inhibitory action: no RPAR inhibitory action

## O=C(Nc1nc(-c2ccccc2Cl)nc(N2CCCCC2)n1)c1cccnc1 [Compound 3]
[1]; [3]
  RPAR Inhibition: 2/4

## O=C(Nc1nc(-c2ccccc2Cl)nc(N2CCOCC2)n1)c1cccnc1 [Compound 4]
[1]; [3]
  RPAR Inhibition: 2/4

## O=C(Nc1nc(-c2cc(Cl)ccc2Cl)nc(N2CCCCC2)n1)c1cccnc1 [Compound 8]
[1]; [3]
  RPAR Inhibition: 3/4

## Nc1nc(N)nc(-c2ccc(Cl)cc2)n1 [Compound 12]
[1]
  RPAR inhibition activity (in words): do not exhibit RPAR inhibition activity at all
[1]; [4]
  RPAR Inhibition: 0/4

## O=C(Nc1nc(-c2ccccc2Cl)nc(N2CCCC2)n1)c1cccnc1 [Compound 5]
[1]; [3]
  RPAR Inhibition: 2/4

## Nc1nc(NC(=O)c2cccnc2)nc(-c2ccccc2I)n1 [Compound 17]
[1]; [5]
  RPAR Inhibition: 1/4

## Nc1nc(NC(=O)c2cccnc2)nc(-c2cccc(Cl)c2)n1 [Compound 16]
[1]; [5]
  RPAR Inhibition: 0/4

## Nc1nc(NC(=O)c2cccnc2)nc(-c2ccc(Cl)cc2)n1 [Compound 15]
[1]
  RPAR inhibition activity (in words): no RPAR inhibition activity
[1]; [5]
  RPAR Inhibition: 0/4
[2]
  carrageenin edema inhibiting activity: 56.8%

## Nc1nc(NC(=O)c2cccnc2)nc(-c2c(Cl)cccc2Cl)n1 [Compound 14]
[1]; [5]
  RPAR Inhibition: 0/4

## O=C(Nc1nc(-c2ccc(Cl)cc2)nc(N2CCOCC2)n1)c1cccnc1 [Compound 2]
[1]; [3]
  RPAR Inhibition: 2/4

Reference: patent US4415570A, “Nicotinic acid derivatives” (Nippon Shinyaku Co. Ltd., priority 1981, dated 1983)
